The melting point is the temperature, or range, at which the solid turns liquid.

Like-named read-outs stand apart in the source and are kept apart here.

The subject of data set [1] is Mycosphaerella graminicola; Anamorph: Septoria tritici. Kind of data set: Leaf Blotch of Wheat (SEPTTR) disease control. Format: in vivo. The note with it: Zymoseptoria tritici; for pest or weed control at 100 ppm: rate 100 ppm; for pest or weed control at 121.5 g/ha: rate 121.5 g/H. Summed up: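 Protective or curative format: Septoria tritici inoculation either preceded or followed fungicide application to first-leaf Yuma wheat. Severity scored 0–100%; control expressed versus untreated.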

Data set [2] deals with Puccinia triticina; Synonym: Puccinia recondite f. Sp. Tritici. Kind of data set: Wheat Brown Rust (PUCCRT) disease control. Format: in vivo. The note with it: Puccinia triticina, topical; for pest or weed control at 100 ppm: rate 100 ppm; for pest or weed control at 121.5 g/ha: rate 121.5 g/H. Summed up: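 Brown rust on first-leaf Yuma wheat: spore inoculation before or after spray application (acetone/Triton X-100 solution, or EC with Trycol in track spray), overnight 100% RH at 22 °C, disease developed at 24 °C. Severity scored 0–100% and converted to percent control against untreated.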

Setting [3] is: 24 h, 1 Day Protectant, read-out: SEPTTR 1 DP disease control.
The mark [4] stands for this setting: 72 h, 3 Day Curative, read-out: SEPTTR 3 DC disease control.
The mark [5] stands for this setting: 24 h, 1 Day Protectant, read-out: PUCCRT 1 DP disease control.
[6] abbreviates: 72 h, 3 Day Curative, read-out: PUCCRT 3 DC disease control.

The compound `COc1ccnc(C(=O)N[C@H]2CCC[C@H](Cc3ccc(F)cc3F)[C@@H](OCC(C)C)[C@H](C)OC2=O)c1O` [Compound F59] displayed a melting point of 69 to 72 °C. Moreover, in data set [1] (setting [3]), the pest or weed control at 100 ppm lay in the range of 80 to 100% and the pest or weed control at 121.5 g/ha was 80 to 100%. In data set [1] (setting [4]), the pest or weed control at 100 ppm was 80 to 100% and the pest or weed control at 121.5 g/ha is 0 to 80%. In data set [2] (setting [5]), the pest or weed control at 100 ppm was 80 to 100% and the pest or weed control at 121.5 g/ha lay in the range of 80 to 100%. For the same compound, the pest or weed control at 100 ppm in data set [2] (setting [6]) was in the range of 80 to 100%.
`COc1ccnc(C(=O)N[C@H]2CCC[C@H](Cc3ccc(C)cc3)[C@@H](Oc3ccccc3)[C@H](C)OC2=O)c1O` [Compound F49, 3-hydroxy-4-methoxy-N-((3S,7R,8R,9S)-9-methyl-7-(4-methylbenzyl)-2-oxo-8-phenoxyoxonan-3-yl)picolinamide] came in with a melting point of 62 to 66 °C. For the same compound, the pest or weed control at 100 ppm in data set [1] (setting [3]) lay in the range of 80 to 100%. Further, the pest or weed control at 100 ppm in data set [1] (setting [4]) lay within 80 to 100%. In addition, the pest or weed control at 100 ppm in data set [2] (setting [5]) is 80 to 100%. The pest or weed control at 100 ppm in data set [2] (setting [6]) was in the range of 0 to 80%.
For the compound `COc1ccnc(C(=O)N[C@H]2CCC[C@H](Cc3ccc(F)cc3F)[C@@H](OC(=O)c3ccco3)[C@H](C)OC2=O)c1O` [Compound F60], the melting point lay in the range of 93 to 97 °C. Further, in data set [1] (setting [3]), the pest or weed control at 100 ppm was 80 to 100% and the pest or weed control at 121.5 g/ha is 80 to 100%. Also, the pest or weed control at 100 ppm in data set [1] (setting [4]) lay in the range of 80 to 100%. Besides, in data set [2] (setting [5]), the pest or weed control at 100 ppm was 80 to 100% and the pest or weed control at 121.5 g/ha was 80 to 100%. Moreover, the pest or weed control at 100 ppm in data set [2] (setting [6]) fell in the range of 80 to 100%.
Take `C[C@@H]1OC(=O)[C@@H](N)CCC[C@H](Cc2ccc(F)cc2F)[C@H]1OCCCc1ccccc1.Cl`: the melting point was 190 to 195 °C (dec.).
Still for that read-out and setting: to `COCN(C(=O)OC(C)(C)C)[C@H]1CCC[C@H](Cc2ccc(F)cc2F)[C@@H](OCc2ccccc2)[C@H](C)OC1=O` [Compound F254] belongs 108 to 115 °C.
For `COc1ccnc(C(=O)N[C@H]2CCC[C@H](Cc3ccc(F)cc3F)[C@@H](OCc3ccccc3)[C@H](C)OC2=O)c1O` [Compound F52], the melting point was 68 to 72 °C. Also, the pest or weed control at 100 ppm in data set [1] (setting [3]) fell in the range of 80 to 100%. Moreover, the pest or weed control at 100 ppm in data set [1] (setting [4]) was 80 to 100%. The pest or weed control at 100 ppm in data set [2] (setting [5]) lay within 80 to 100%. In addition, the pest or weed control at 100 ppm in data set [2] (setting [6]) lay in the range of 80 to 100%.
Consider `Cc1ccc(C[C@H]2CCC[C@H](N(C(=O)OC(C)(C)C)C(=O)OC(C)(C)C)C(=O)O[C@@H](C)[C@@H]2OCc2ccccc2)cc1` [Compound F230, tert-butyl N-[(3S,7R,8R,9S)-8-benzyloxy-9-methyl-2-oxo-7-(p-tolylmethyl)oxonan-3-yl]-N-tert-butoxycarbonyl-carbamate], for which the melting point was in the range of 164 to 166 °C.
The same measure, in the same setting: as for `Cc1ccc(C[C@H]2CCC[C@H](NC(=O)OC(C)(C)C)C(=O)O[C@@H](C)[C@@H]2OCc2ccccc2)cc1` [Compound F229], the figure is 108 to 110 °C.
On to `COc1ccnc(C(=O)N[C@H]2CCC[C@H](Cc3ccc(C)cc3)[C@@H](Oc3ccccc3)[C@H](C)OC2=O)c1OC(C)=O` [Compound F79, 4-methoxy-2-(((3S,7R,8R,9S)-9-methyl-7-(4-methylbenzyl)-2-oxo-8-phenoxyoxonan-3-yl)carbamoyl)pyridin-3-yl acetate], for which the melting point lay within 96 to 100 °C. In addition, the pest or weed control at 100 ppm in data set [1] (setting [3]) lay within 80 to 100%. Further, the pest or weed control at 100 ppm in data set [1] (setting [4]) fell in the range of 80 to 100%. In addition, the pest or weed control at 100 ppm in data set [2] (setting [5]) was in the range of 80 to 100%. In addition, in data set [2] (setting [6]), the pest or weed control at 100 ppm lay in the range of 80 to 100%.
For `Cc1ccc(C[C@H]2CCC[C@H](N)C(=O)O[C@@H](C)[C@@H]2OCC2CC2)cc1.Cl`, the melting point is 210 °C (dec.).
In the case of `COCN(C(=O)OC(C)(C)C)[C@H]1CCC[C@H](Cc2ccc(F)cc2F)[C@@H](OC(=O)c2ccco2)[C@H](C)OC1=O` [Compound F260], the melting point fell in the range of 45 to 48 °C.
Still for that read-out and setting: as for `C[C@@H]1OC(=O)[C@@H](NC(=O)OC(C)(C)C)CCC[C@H](C)[C@H]1Oc1ccccc1` [Compound F224], the figure is 144 to 145 °C.
`COc1ccnc(C(=O)N[C@H]2CCC[C@H](Cc3ccc(C)cc3)[C@@H](Oc3ccccc3)[C@H](C)OC2=O)c1OCOC(C)=O` [Compound F134] displayed a melting point of 71 to 75 °C. In addition, the pest or weed control at 100 ppm in data set [1] (setting [3]) fell in the range of 80 to 100%. For the same compound, the pest or weed control at 100 ppm in data set [1] (setting [4]) is 80 to 100%. The pest or weed control at 100 ppm in data set [2] (setting [5]) fell in the range of 80 to 100%. Further, the pest or weed control at 100 ppm in data set [2] (setting [6]) fell in the range of 80 to 100%.
Turning to `CCOCC(=O)OCOc1c(OC)ccnc1C(=O)N[C@H]1CCC[C@H](Cc2ccc(C)cc2)[C@@H](OCC2CC2)[C@H](C)OC1=O` [Compound F180], the melting point fell in the range of 50 to 55 °C. Moreover, in data set [1] (setting [3]), the pest or weed control at 100 ppm is 80 to 100% and the pest or weed control at 121.5 g/ha lay within 80 to 100%. Further, in data set [1] (setting [4]), the pest or weed control at 100 ppm lay within 80 to 100% and the pest or weed control at 121.5 g/ha was 80 to 100%. Besides, in data set [2] (setting [5]), the pest or weed control at 100 ppm fell in the range of 80 to 100% and the pest or weed control at 121.5 g/ha fell in the range of 80 to 100%. In data set [2] (setting [6]), the pest or weed control at 100 ppm fell in the range of 80 to 100% and the pest or weed control at 121.5 g/ha was in the range of 0 to 80%.
As for `COc1ccnc(C(=O)N[C@H]2CCC[C@H](Cc3ccc(F)cc3F)[C@@H](OCCCc3ccccc3)[C@H](C)OC2=O)c1OCOC(C)=O` [Compound F141], the melting point lay within 40 to 45 °C. For the same compound, in data set [1] (setting [3]), the pest or weed control at 100 ppm was in the range of 80 to 100% and the pest or weed control at 121.5 g/ha was in the range of 80 to 100%. Also, in data set [1] (setting [4]), the pest or weed control at 100 ppm is 80 to 100% and the pest or weed control at 121.5 g/ha was 0 to 80%. Moreover, in data set [2] (setting [5]), the pest or weed control at 100 ppm was 80 to 100% and the pest or weed control at 121.5 g/ha lay in the range of 80 to 100%. Moreover, in data set [2] (setting [6]), the pest or weed control at 100 ppm is 0 to 80%.
Turning to `COc1ccnc(C(=O)N[C@H]2CCC[C@H](Cc3ccc(C)cc3)[C@@H](OCC3CC3)[C@H](C)OC2=O)c1OCOC(C)=O` [Compound F127], the melting point lay in the range of 55 to 60 °C. In data set [1] (setting [3]), the pest or weed control at 100 ppm was 80 to 100%. Also, the pest or weed control at 100 ppm in data set [1] (setting [4]) was in the range of 80 to 100%. Besides, the pest or weed control at 100 ppm in data set [2] (setting [5]) fell in the range of 80 to 100%. The pest or weed control at 100 ppm in data set [2] (setting [6]) is 80 to 100%.
`Cc1ccc(C[C@H]2CCC[C@H](NC(=O)OC(C)(C)C)C(=O)O[C@@H](C)[C@@H]2OCC2CC2)cc1` [Compound F236] came in with a melting point of 86 to 89 °C.
The same measure, in the same setting: as for `COCN(C(=O)OC(C)(C)C)[C@H]1CCC[C@H](CCC(C)C)[C@@H](OCCCC(F)(F)F)[C@H](C)OC1=O` [Compound F203], the figure is 87 to 89 °C; as for `Cc1ccc(C[C@H]2CCC[C@H](N(C(=O)OC(C)(C)C)C(=O)OC(C)(C)C)C(=O)O[C@@H](C)[C@@H]2OCC(C)C)cc1` [Compound F232], 110 to 114 °C; as for `CC(C)CO[C@@H]1[C@@H](Cc2ccc(F)cc2F)CCC[C@H](N)C(=O)O[C@H]1C.Cl`, 67 to 73 °C.
Regarding `COc1ccnc(C(=O)N[C@H]2CCC[C@H](Cc3ccc(C)cc3)[C@@H](OCC(C)C)[C@H](C)OC2=O)c1O` [Compound F41], the melting point lay in the range of 129 to 131 °C. The pest or weed control at 100 ppm in data set [1] (setting [3]) was 80 to 100%. The pest or weed control at 100 ppm in data set [1] (setting [4]) was 80 to 100%. Moreover, in data set [2] (setting [5]), the pest or weed control at 100 ppm was in the range of 80 to 100%. Further, the pest or weed control at 100 ppm in data set [2] (setting [6]) lay within 0 to 80%.
Regarding `CCCO[C@@H]1[C@@H](Cc2ccc(F)cc2)CCC[C@H](N)C(=O)O[C@H]1C.Cl`, the melting point was 215 to 217 °C.
